Laboratory results published in patent publication US10849880B2, “Pharmaceutical composition” (FUJIFILM Toyama Chemical Co., Ltd., priority 2016, dated 2020).

Key:
[1] = Evaluation of degradation material: stress test at 70° C. for 7 days, HPLC; format: physicochemical; details: class of degradation material after 70° C.
Description: The prepared solid pharmaceutical composition was subjected to a stress test that it was stored in a thermostat at 70° C. for 7 days. The storage stability was evaluated in terms of the amount of compound A decomposed by the following method.
The above stored solid pharmaceutical composition was adjusted with water/acetonitrile/pH 3.0 phosphate buffer (450:50:1) such that the maleate of compound A had 333 μg/mL and was filtered through a membrane filter to obtain a filtrate. The degradation material of compound A was quantified by high performance liquid chromatography (HPLC). The amount of the degradation material detected at a relative retention time of 0.94 with respect to compound A was quantified as the degradation material of compound A under the following measurement conditions.
(HPLC Measurement Condition)
Evaluation criteria for the degradation material are as follows:
Evaluation was performed in the same manner as described in Examples 1-19 and Comparative Examples 1-14.

[2] = pH of maleate of compound A and additive dissolved or suspended in 10 mmol/L KCl solution; format: physicochemical; details: maleate of compound A 1 mg/mL with additive
Description: The pH was measured when the maleate of compound A and the additive were dissolved or suspended in a 10 mmol/L KCl solution in such a way as to reach the respective numerical values shown in Table 2 to Table 6.

Evaluation of degradation material [1]: A (Less than 0.25%)
pH [2]: 4.5
Structure (SMILES): OC1CN(CCCOCCc2ccc3sccc3c2)C1 [compound 14, 1-(3-(2-(1-benzothiophen-5-yl)ethoxy)propyl)azetidin-3-ol]
